According to ChEMBL document CHEMBL1828497, “Novel indole and azaindole (pyrrolopyridine) cannabinoid (CB) receptor agonists: design, synthesis, structure-activity relationships, physicochemical properties and biological activity” (Eur J Med Chem, 2011):
In brackets after ≈: the same amount, converted by molar mass.

Tests used:
[1] = Lipophilicity, log D of the compound at pH 7.4; conditions: buffer
[2] = Dissociation constant, pKa of the compound by fast UV-metric method; assay type: physicochemical
[3] = Apparent permeability from apical to basolateral side in human Caco2 cells by LC-MS/MS analysis; conditions: Caco-2
physchem [4] = conditions: phosphate buffer, pH 7.4
Description: Thermodynamic solubility of the compound in phosphate buffer at pH 7.4 after 24 hrs by HPLC analysis

physchem [5] = conditions: phosphate buffer, pH 4
Description: Thermodynamic solubility of the compound in phosphate buffer at pH 4 after 24 hrs by HPLC analysis

physchem [6] = conditions: 0.01 M phosphate buffered saline, pH 7.4
physchem [7] = conditions: 0.01 M phosphate buffered saline, pH 7.4; remark: listed apart in the source
Cannabinoid receptor 2 [8] = target: T1, Cannabinoid receptor 2 (Homo sapiens, UniProt P34972); test: Displacement of [3H]-CP55940 from human CB2 receptor expressed in CHO cells by liquid scintillation counting; assay type: cell-based
T1 sequence (P34972 whole entry): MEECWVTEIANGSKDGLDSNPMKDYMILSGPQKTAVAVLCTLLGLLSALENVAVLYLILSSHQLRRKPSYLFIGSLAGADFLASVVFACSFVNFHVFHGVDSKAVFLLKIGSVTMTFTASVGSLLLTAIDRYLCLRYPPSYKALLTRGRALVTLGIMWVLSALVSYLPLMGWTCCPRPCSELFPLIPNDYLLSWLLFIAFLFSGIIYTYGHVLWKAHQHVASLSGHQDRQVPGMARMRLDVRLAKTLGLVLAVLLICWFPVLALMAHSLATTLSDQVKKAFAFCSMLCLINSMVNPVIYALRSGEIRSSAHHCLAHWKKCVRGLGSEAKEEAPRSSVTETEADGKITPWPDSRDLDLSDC

Cannabinoid receptor 1 [9] = target: T2, Cannabinoid receptor 1 (Homo sapiens, UniProt P21554); test: Displacement of [3H]-CP55940 from human CB1 receptor expressed in CHO cells by liquid scintillation counting; assay type: cell-based
T2 sequence (P21554 whole entry): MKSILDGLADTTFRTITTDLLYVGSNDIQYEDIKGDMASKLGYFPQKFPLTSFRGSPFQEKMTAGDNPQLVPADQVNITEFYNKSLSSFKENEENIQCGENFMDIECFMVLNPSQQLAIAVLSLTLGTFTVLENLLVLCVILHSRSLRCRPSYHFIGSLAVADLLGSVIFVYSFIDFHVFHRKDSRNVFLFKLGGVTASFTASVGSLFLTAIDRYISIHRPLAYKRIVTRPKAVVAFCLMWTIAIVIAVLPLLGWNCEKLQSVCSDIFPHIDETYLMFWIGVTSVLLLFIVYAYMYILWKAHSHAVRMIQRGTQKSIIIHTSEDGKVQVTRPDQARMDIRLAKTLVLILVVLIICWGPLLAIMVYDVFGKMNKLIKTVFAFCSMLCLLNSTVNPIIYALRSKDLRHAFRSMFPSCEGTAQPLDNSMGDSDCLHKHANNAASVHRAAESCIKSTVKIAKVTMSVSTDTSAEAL

Homo sapiens = species: Homo sapiens; test: Selectivity ratio of Ki for human CB2 receptor to Ki for human CB1 receptor
Cannabinoid receptor 1 [10] = target: T2, Cannabinoid receptor 1; test: Agonist activity at human CB1 receptor expressed in CHO cells assessed as stimulation of [3H]-arachidonic acid release; assay type: functional, cell-based
Cannabinoid receptor 2 [11] = target: T1, Cannabinoid receptor 2; test: Agonist activity at human CB2 receptor expressed in CHO cells assessed as inhibition of forskolin-stimulated cAMP accumulation after 20 mins; assay type: functional, cell-based
[12] = target: Cannabinoid receptor 1 (Rattus norvegicus) (UniProt P20272); test: (§1) Activation of CB1 receptor in Wistar rat prelimbic prefrontal cortex assessed as reduction of field excitatory postsynaptic potential amplitude after 20 mins; assay type: tissue-based
Sequence of Cannabinoid receptor 1 (Rattus norvegicus) (P20272 whole entry): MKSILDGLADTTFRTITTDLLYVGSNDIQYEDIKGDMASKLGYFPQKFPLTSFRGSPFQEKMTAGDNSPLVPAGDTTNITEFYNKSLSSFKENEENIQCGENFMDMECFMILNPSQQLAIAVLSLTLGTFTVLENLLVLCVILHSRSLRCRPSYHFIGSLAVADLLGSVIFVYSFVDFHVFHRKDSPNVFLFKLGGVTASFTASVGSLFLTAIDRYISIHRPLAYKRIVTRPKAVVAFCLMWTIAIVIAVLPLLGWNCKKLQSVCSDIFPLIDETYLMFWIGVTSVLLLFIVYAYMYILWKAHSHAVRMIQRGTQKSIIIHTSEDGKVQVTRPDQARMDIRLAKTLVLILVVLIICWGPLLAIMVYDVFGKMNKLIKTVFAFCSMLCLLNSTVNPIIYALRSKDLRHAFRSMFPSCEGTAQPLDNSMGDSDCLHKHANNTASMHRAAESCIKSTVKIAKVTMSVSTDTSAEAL

Cannabinoid receptor 1 [13] = target: Cannabinoid receptor 1 (Rattus norvegicus, UniProt P20272); test: as §1; assay type: tissue-based
Sequence of Cannabinoid receptor 1 (Rattus norvegicus, UniProt P20272) (P20272 whole entry): as above

[14] = target: Cannabinoid receptor 1 (Rattus norvegicus) (UniProt P20272); test: Activation of CB1 receptor in Wistar rat prelimbic prefrontal cortex assessed as reduction of field excitatory postsynaptic potential amplitude after 20 mins relative to baseline; assay type: tissue-based

Compound | logD [1] | pKa [2] | Papp A→B [3] [×10⁻⁶ cm/s] | solubility thermodynamic at 24 h (physchem [4]) [µM] | solubility thermodynamic at 24 h (physchem [5]) [µM] | solubility kinetic (physchem [6]) [µM] | solubility kinetic (physchem [7]) [µM] | Ki (Cannabinoid receptor 2 [8]) [nM] | Ki (Cannabinoid receptor 1 [9]) [nM] | Ratio Ki (Homo sapiens) | EC50 (Cannabinoid receptor 1 [10]) [nM] | EC50 (Cannabinoid receptor 2 [11]) [nM] | inhibition [12] | IC50 (Cannabinoid receptor 1 [13]) [nM] | Emax [14] [%]
CCCCCCC(C)(C)c1ccc([C@@H]2C[C@H](O)CC[C@H]2CCCO)c(O)c1 [CP-55940] | > 5 | 11.2 | 5.7 | 2 (≈ 0.753 µg/mL) | 2 (≈ 0.753 µg/mL) | 30 (≈ 11.3 µg/mL) | 100 (≈ 37.7 µg/mL) |  |  |  |  |  |  |  | 
COCCn1cc(C(=O)c2cccc3ccccc23)c2ccncc21 | 3.13 | 5.8 |  |  |  |  |  | 25.1 | > 1000 | < 0.03 | > 1000 |  |  |  | 
COCCn1cc(C(=O)Nc2ccc3ccccc3c2)c2ccccc21 | 3.69 |  |  | < 1 | < 1 |  |  | 316 | > 1000 | < 0.3 |  |  |  |  | 
CCCCCn1cc(C(=O)c2cccc3ccccc23)c2cnccc21 |  | 6.49 |  |  |  |  |  | 50.1 | 316 |  | 50.1 |  |  |  | 
COCCn1cc(C(=O)c2cccc3ccccc23)c2cccnc21 | 3.57 | < 2 | 26 | 3 (≈ 0.991 µg/mL) | 3 (≈ 0.991 µg/mL) | 10 (≈ 3.3 µg/mL) | 65 (≈ 21.5 µg/mL) | 200 | 501 | 0.4 | > 1000 | > 1000 |  |  | 
COCCn1cc(C(=O)c2cccc(-c3ccccc3)c2)c2ccccc21 | 4.4 |  |  | < 1 | < 1 |  |  | > 1000 | 251 | > 4 |  |  |  |  | 
COCCn1cc(C(=O)Nc2cccc3ccccc23)c2ccccc21 | 2.94 |  | 27 | 3 (≈ 1.03 µg/mL) | 3 (≈ 1.03 µg/mL) | 30 (≈ 10.3 µg/mL) | 100 (≈ 34.4 µg/mL) | 251 | > 1000 | < 0.3 |  | 6.31 |  |  | 
COCCn1cc(C(=O)c2ccccc2-c2ccccc2)c2ccccc21 | 3.31 |  |  | < 1 | < 1 |  |  | 631 | 251 | 3 |  |  |  |  | 
COCCn1cc(C(=O)c2ccc(-c3ccccc3)cc2)c2ccccc21 | 4.5 |  |  | < 1 | < 1 |  |  | > 1000 | > 1000 |  |  |  |  |  | 
CCCCCn1cc(C(=O)c2ccc(-c3ccccc3)cc2)c2ccccc21 | > 5 |  |  | < 1 | < 1 |  |  | 39.8 | 31.6 | 1 |  |  |  |  | 
CCCCCn1cc(C(=O)c2cccc3ccccc23)c2ccncc21 | 4.72 | 5.83 | 13 | 4 (≈ 1.37 µg/mL) |  | 3 (≈ 1.03 µg/mL) | 10 (≈ 3.42 µg/mL) | 501 | 158 | 3 | 100 |  |  |  | 
CCCCCCC(C)(C)c1cc(O)c2c(c1)OC(C)(C)C1CCC(=O)CC21 (stereo not given) [NABILONE] | > 5 | 10.6 |  | < 1 | < 1 |  |  | 6.31 | 3.98 | 1.7 |  | 15.8 |  |  | 
CCCCCn1cc(C(=O)c2cccc(-c3ccccc3)c2)c2ccccc21 | > 5 |  |  | < 1 |  |  |  | 63.1 | 7.94 | 9 |  |  |  |  | 
CCCCCn1cc(C(=O)c2ccccc2-c2ccccc2)c2ccccc21 | > 5 |  |  | < 1 |  |  |  | 7.94 | 6.31 | 1 |  |  |  |  | 
CCCCCn1cc(C(=O)c2cccc3ccccc23)c2ccccc21 | > 5 |  |  | < 1 | < 1 |  |  | 6.31 | 2 | 3 | 5.01 | 5.01 | Dose-dependent effect | 280 | 73.5
Cc1c(C(=O)c2cccc3ccccc23)c2cccc3c2n1[C@H](CN1CCOCC1)CO3 [WIN-552122] | 4.08 | 4.14 | 12.1 | 5 (≈ 2.13 µg/mL) | 8 (≈ 3.41 µg/mL) | 3 (≈ 1.28 µg/mL) | 20 (≈ 8.53 µg/mL) |  |  |  |  |  |  |  | 
CCCCCn1cc(C(=O)Nc2ccc3ccccc3c2)c2ccccc21 | > 5 |  |  | < 1 | < 1 |  |  | 631 | 63.1 | 10 | > 1000 | 5010 |  |  | 
CCCCCn1cc(C(=O)Nc2cccc3ccccc23)c2ccccc21 | > 5 |  |  | < 1 | < 1 |  |  | 100 | 1.26 | 79 | 10 | 7.94 | Dose-dependent effect | 450 | 78.1
CCCCCn1cc(C(=O)c2cccc3ccccc23)c2cccnc21 | > 5 | < 2 |  | 1 (≈ 0.342 µg/mL) | 1 (≈ 0.342 µg/mL) |  |  | 50.1 | 12.6 | 4 | 31.6 | 158 | Dose-dependent effect | 520 | 67.1
